We go through nine compounds from US10179782B2, “Substituted sulfonamide compounds” (Genentech, Inc., priority 2016, dated 2019).

Where two headings read alike, the source gives them in different places.

As usually defined, the IC50 is the concentration needed to halve the response being measured.

For the test, the target named is T1, human TRPA1 (Homo sapiens, UniProt O75762).
T1 construct: expressed in transfected cells; host or cells: CHO cells
The test is described as follows: TRPA1 FLIPR Tetra calcium influx assay in CHO cells (block of cinnamaldehyde-induced calcium influx). It counts as cell-based. The conditions noted are these: CHO cells expressing TRPA1, agonist cinnamaldehyde 75 uM, read-out: hTRPA1 CHO Ca2+ AUC EVO (IC50). In a few lines:
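CHO cells expressing TRPA1 were loaded with calcium dye in HBSS/20 mM HEPES, pH 7.4, 0.02% BSA, then given compound for 20 min at room temperature before ~EC80 cinnamaldehyde (75 µM human, 45 µM rat). Block of calcium influx was read on FLIPR Tetra; IC50 fitted with Hill coefficient fixed at 1.5.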

[1] abbreviates: Table 2, 20 min compound incubation, Hill coefficient fixed to 1.5.
Setting [2] is: Table 1, with vs without substituent at R2/R3.

T1 sequence (O75762 whole entry): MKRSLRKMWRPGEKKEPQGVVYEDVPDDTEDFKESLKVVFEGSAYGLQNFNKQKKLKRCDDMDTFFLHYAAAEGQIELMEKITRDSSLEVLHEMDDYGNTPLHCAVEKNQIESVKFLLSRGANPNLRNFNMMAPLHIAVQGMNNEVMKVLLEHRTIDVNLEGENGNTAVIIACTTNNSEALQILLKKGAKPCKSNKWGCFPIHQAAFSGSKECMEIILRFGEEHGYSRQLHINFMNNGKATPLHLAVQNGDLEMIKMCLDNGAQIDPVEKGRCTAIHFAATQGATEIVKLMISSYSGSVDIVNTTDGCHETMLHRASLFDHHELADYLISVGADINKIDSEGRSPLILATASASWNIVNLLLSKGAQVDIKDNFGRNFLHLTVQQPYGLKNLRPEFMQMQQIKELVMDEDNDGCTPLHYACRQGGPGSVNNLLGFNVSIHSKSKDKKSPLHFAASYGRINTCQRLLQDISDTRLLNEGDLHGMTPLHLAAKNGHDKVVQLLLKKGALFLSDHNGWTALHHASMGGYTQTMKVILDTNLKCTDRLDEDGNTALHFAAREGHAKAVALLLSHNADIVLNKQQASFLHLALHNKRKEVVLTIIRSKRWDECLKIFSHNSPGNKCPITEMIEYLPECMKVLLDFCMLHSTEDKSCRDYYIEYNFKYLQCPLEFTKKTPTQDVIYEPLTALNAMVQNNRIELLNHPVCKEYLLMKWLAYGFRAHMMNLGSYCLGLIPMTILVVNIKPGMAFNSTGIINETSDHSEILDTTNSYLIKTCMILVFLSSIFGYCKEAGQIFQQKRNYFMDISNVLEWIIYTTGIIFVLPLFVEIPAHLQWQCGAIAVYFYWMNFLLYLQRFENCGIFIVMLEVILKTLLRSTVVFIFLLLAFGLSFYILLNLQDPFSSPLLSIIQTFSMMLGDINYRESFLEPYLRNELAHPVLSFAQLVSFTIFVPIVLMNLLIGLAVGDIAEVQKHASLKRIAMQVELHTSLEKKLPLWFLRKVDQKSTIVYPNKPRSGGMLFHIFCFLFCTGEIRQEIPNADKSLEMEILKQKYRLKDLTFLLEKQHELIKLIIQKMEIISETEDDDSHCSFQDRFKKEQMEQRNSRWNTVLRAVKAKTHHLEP

In the case of `C[C@H]1[C@H](F)C[C@@H](C(=O)N(COP(=O)(O)O)Cc2cc(-c3cnc(C(F)(F)F)nc3)ncc2F)N1S(=O)(=O)c1ccc(F)cc1` [Example 157, Sodium ((2S,4R,5S)-4-fluoro-N-((5-fluoro-2-(2-(trifluoromethyl)pyrimidin-5-yl)pyridin-4-yl)methyl)-1-((4-fluorophenyl)sulfonyl)-5-methylpyrrolidine-2-carboxamido)methyl phosphate], under setting [1], the IC50 was 1200 nM.
Turning to `C[C@H]1[C@H](F)C[C@@H](C(=O)NCc2cc(-c3cnc(C(F)(F)F)nc3)ncc2C(F)(F)F)N1S(=O)(=O)c1cncc(F)c1` [Example 159, (2S,4R,5S)-4-fluoro-1-[(5-fluoro-3-pyridyl)sulfonyl]-5-methyl-N-[[5-(trifluoromethyl)-2-[2-(trifluoromethyl)pyrimidin-5-yl]-4-pyridyl]methyl]pyrrolidine-2-carboxamide], the IC50 under setting [1] turned out to be 2.31 nM.
Consider `C[C@H]1[C@H](F)C[C@@H](C(=O)NCc2cc(-c3cnc(C(F)(F)F)nc3)ncc2C(F)(F)F)N1S(=O)(=O)c1ccc(C#N)nc1` [Example 160, (2S,4R,5S)-1-[(6-cyano-3-pyridyl)sulfonyl]-4-fluoro-5-methyl-N-[[5-(trifluoromethyl)-2-[2-(trifluoromethyl)pyrimidin-5-yl]-4-pyridyl]methyl]pyrrolidine-2-carboxamide], for which the half-inhibitory concentration (IC50) under setting [1] was determined as 7.27 nM.
As for `C[C@H]1[C@H](F)C[C@@H](C(=O)NCc2cc(-c3cnc(C(F)(F)F)nc3)ncc2C(F)(F)F)N1S(=O)(=O)c1ccc(Cl)nc1` [Example 161, (2S,4R,5S)-1-[(6-chloro-3-pyridyl)sulfonyl]-4-fluoro-5-methyl-N-[[5-(trifluoromethyl)-2-[2-(trifluoromethyl)pyrimidin-5-yl]-4-pyridyl]methyl]pyrrolidine-2-carboxamide], the IC50 under setting [1] was 1.96 nM.
On to `C[C@H]1[C@H](F)C[C@@H](C(=O)NCc2cc(-c3cnc(C(F)(F)F)nc3)cnc2C(F)F)N1S(=O)(=O)c1ccc(F)cc1` [Example 162, (2S,4R,5S)-N-[[2-(difluoromethyl)-5-[2-(trifluoromethyl)pyrimidin-5-yl]-3-pyridyl]methyl]-4-fluoro-1-(4-fluorophenyl)sulfonyl-5-methyl-pyrrolidine-2-carboxamide], for which the IC50 under setting [1] is 2.34 nM.
Regarding `C[C@H]1[C@H](F)C[C@@H](C(=O)NCc2cc(-c3cnc(C(F)(F)F)nc3)ncc2F)N1S(=O)(=O)c1ccc(F)cc1` [drawing 600, (2S,4R,5S)-4-fluoro-1-(4-fluorophenyl)sulfonyl-N-[[5-fluoro-2-[2-(trifluoromethyl)pyrimidin-5-yl]-4-pyridyl]methyl]-5-methyl-pyrrolidine-2-carboxamide], the IC50 under setting [2] was found to be 2.01 nM.
With `C[C@H]1[C@H](F)C[C@@H](C(=O)NCc2cc(-c3cnc(C(F)(F)F)nc3)ncn2)N1S(=O)(=O)c1ccc(F)cc1` [drawing 602, (2S,4R,5S)-4-fluoro-1-(4-fluorophenyl)sulfonyl-5-methyl-N-[[6-[2-(trifluoromethyl)pyrimidin-5-yl]pyrimidin-4-yl]methyl]pyrrolidine-2-carboxamide], the IC50 under setting [2] was found to be 21.9 nM.
On to `C[C@H]1[C@H](F)C[C@@H](C(=O)NCc2cc(-c3cnc(C(F)(F)F)nc3)c(Cl)cn2)N1S(=O)(=O)c1ccc(F)cc1` [drawing 604, (2S,4R,5S)-N-[[5-chloro-4-[2-(trifluoromethyl)pyrimidin-5-yl]-2-pyridyl]methyl]-4-fluoro-1-(4-fluorophenyl)sulfonyl-5-methyl-pyrrolidine-2-carboxamide], for which the IC50 under setting [2] was 4.31 nM.
For `C[C@H]1[C@H](F)C[C@@H](C(=O)NCc2ccnc(-c3cnc(C(F)(F)F)nc3)c2)N1S(=O)(=O)c1ccc(F)cc1` [drawing 606, (2S,4R,5S)-4-fluoro-1-(4-fluorophenyl)sulfonyl-5-methyl-N-[[2-[2-(trifluoromethyl)pyrimidin-5-yl]-4-pyridyl]methyl]pyrrolidine-2-carboxamide], the IC50 under setting [2] turned out to be 19.5 nM.
